Measured values from US20240189275A1, “METHODS FOR TREATING NON-ALCOHOLIC STEATOHEPATITIS WITH A SCD-1 INHIBITOR” (Lipidio Pharmaceuticals, Inc., priority 2021, published 2024).

Test system: diet-induced and biopsy-confirmed mouse model of NASH
Test: Liver histology (NAS, fibrosis stage, quantitative histomorphometry) in GAN diet-induced, biopsy-confirmed mouse model of NASH
Type: in vivo, mice
Settings: for number of mice with worsening (higher score) of Fibrosis Stage: placebo gel 7/16; for liver content (in mg) of α-SMA, antibody-stained sections / liver Galectin-3 content (in mg), antibody-stained sections / liver lipid content (hematoxylin and eosin-stained sections): week 12; for number of animals experiencing an improvement in NAS: topical, p<0.05 compared to placebo
Procedure: The effects of topical treatment of Compound 25 to 10% of the skin for 12 weeks were assessed in a diet-induced and biopsy-confirmed mouse model of NASH described in the literature (World Journal of Gastroenterology (2019), 25(33), 4904-4920). In this model, NASH is induced by maintaining mice on a high fat-high fructose diet (the so-called GAN [Novel Gubra Amylin] diet) for 33 weeks prior to drug administration. […] This biopsy is then compared to a post-drug treatment biopsy to assess changes in NAFLD activity and Fibrosis Stage. Qualitative scoring is completed with quantitative immunohistochemistry to assess effects on hepatic steatosis, inflammation (Galectin-3), fibrosis (Collagen 1a1 and Picro-Sirius Red Staining) and stellate cell activation (α-SMA). RNASeq was also performed on terminal liver samples from mice treated with placebo gel and compound 25 gel to examine key candidate genes involved in extracellular matrix formation (ECM) and fibrogenesis. Parametric (ANOVA) and non-parametric (Fisher's or Chi Square) statistics were used to analyze the data as appropriate.
SCD-1 inhibitor compounds can be tested in vivo in a rodent diet-induced model of biopsy-confirmed NASH. In this experiment, the NASH phenotype is induced by maintaining mice upon a GAN diet for 33 weeks prior to drug administration (BMC Gastroenterology (2020), 20(1), 210; World Journal of Gastroenterology (2019), 25(33), 4904-4920). A biopsy is performed prior to drug treatment to eliminate any mice that have not developed the NASH phenotype and to mirror clinical trial design where liver biopsies prior to and at the end of treatment are compared. In addition to pre- and post-treatment histological analyses, metabolic assessments such as body weight, body composition, food intake and clinical chemistries are measured during and following the 12-week study dosing period.
Mice were dosed topically to 10% of the total BSA of the skin with either a placebo gel or a gel containing compound 25 (at a concentration of 0.05%, 0.25%, 0.75%, or 2.5%). (World Journal of Gastroenterology (2018), 24(2), 179-194).
Animals and Diet: The Danish Animal Experiments Inspectorate approved all experiments which were conducted using internationally accepted principles for the use of laboratory animals under the personal license #2013-15-2934-00784. B6.V-Lepob/JRj (ob/ob) mice (6 weeks old) were from Janvier Labs (Le Genest Saint Isle, France) and housed in a controlled environment (12h light/dark cycle, lights on at 3 AM, 21+2° C., humidity 50+10%). Each animal was identified by an implantable subcutaneous microchip (PetID Microchip, E-vet, Haderslev, Denmark). Mice had ad libitum access to tap water and the Gubra Amylin NASH diet [GAN diet; 40 kcal-% fat (of these 0% trans-fat and 46% saturated fatty acids by weight), 22% fructose, 10% sucrose, 2% cholesterol; D09100310, Research Diets]. Mice were maintained on the GAN diet for 33 weeks prior to study initiation to induce NASH and remained on the GAN diet during the 12 weeks of drug administration. Mice were weighed daily during the study and body composition was measured by non-invasive EchoMRI scanning using EchoMRI-900 (EchoMRI, Houston, TX).
Liver Biopsy: After 33 weeks of GAN diet feeding, mice were anesthetized with isoflurane (2%-3%, in 100% oxygen), a small abdominal incision in the midline was made, and the left lateral lobe of the liver was exposed. A cone-shaped wedge of liver tissue (50-100 mg) was excised from the distal part of the lobe. The cut surface of the liver was closed by electrosurgical bipolar coagulation using an electrosurgical unit (ERBE VIO® 100C, ERBE, Marietta, GA, United States). The liver was returned to the abdominal cavity, the abdominal wall was sutured and skin stapled. Carprofen (5 mg/kg, i.p.) was administered at the time of surgery and at post-operative day one and two. […]

[1] = 0.75% and 2.5% dose groups (group not specified), 16 animals per group, 12 weeks
[2] = conclusion, topical to 10% of BSA, dose not specified

O=C(COc1ccc(CO)cc1)N1CC[C@H](Oc2ccccc2C(F)(F)F)C1 [Compound 25, (S)-2-(4-(hydroxymethyl)phenoxy)-1-(3-(2-(trifluoromethyl)phenoxy)pyrrolidin-1-yl)ethan-1-one]
number of mice with worsening (higher score) of Fibrosis Stage (0.25% gel, 12 weeks): 2/16
liver content (in mg) of α-SMA, antibody-stained sections (0.25% gel, p<0.05): significantly reduced
proportion of mice exhibiting any worsening of the fibrosis stage (0.25%, 0.75% and 2.5% gel groups, 12 weeks, placebo almost 50%): 6-12%
animals showing a higher NAS score [1]: none
animals with a lower NAS score [1]: 15/16
liver content of Collagen 1a1 (in mg), antibody-stained sections (0.75% gel, 12 weeks, p<0.05): significant reduction
liver content of Picro-Sirius Red (in mg) (0.75% gel, 12 weeks, p<0.05): significantly reduced
number of mice with worsening (higher score) of Fibrosis Stage (0.75% gel, 12 weeks): 2/16
number of animals experiencing an improvement in NAS (0.75% gel, 12 weeks): significantly greater
liver content (in mg) of α-SMA, antibody-stained sections (0.75% gel, p<0.01): significantly reduced
liver Galectin-3 content (in mg), antibody-stained sections (0.75% gel, p<0.05): significantly reduced
liver lipid content (hematoxylin and eosin-stained sections) (0.75% gel, p<0.05): significantly reduced
liver content of Picro-Sirius Red (in mg) (2.5% gel, 12 weeks, p<0.001): significantly reduced
liver content of Collagen 1a1 (in mg), antibody-stained sections (2.5% gel, 12 weeks, p<0.01): significant reduction
number of mice with worsening (higher score) of Fibrosis Stage (2.5% gel, 12 weeks): 1/16
number of animals experiencing an improvement in NAS (2.5% gel, 12 weeks): significantly greater
liver Galectin-3 content (in mg), antibody-stained sections (2.5% gel, p<0.001): significantly reduced
liver content (in mg) of α-SMA, antibody-stained sections (2.5% gel, p<0.001): significantly reduced
liver lipid content (hematoxylin and eosin-stained sections) (2.5% gel, p<0.001): significantly reduced
liver content of Collagen 1a1 (in mg), antibody-stained sections (all doses (0.05%, 0.25%, 0.75%, 2.5% gel), 12 weeks): clear trend in reduction
multiple quantitative markers of collagen (Collagen 1a1 immunohistochemistry; PSR staining; Collagen 1a1, 3a1, 4a1 mRNA) (conclusion, dose not specified): decreased
α-SMA expression (stellate cell activation) (conclusion, dose not specified): decreased
fibrosis stage [2]: prevented worsening
hepatic steatosis [2]: improved
inflammation [2]: decreased
overall NAFLD Activity Score or NAS [2]: improved
